Biological target: T1, SIRT1 (Homo sapiens, UniProt Q96EB6)
T1 sequence (Q96EB6 1-747): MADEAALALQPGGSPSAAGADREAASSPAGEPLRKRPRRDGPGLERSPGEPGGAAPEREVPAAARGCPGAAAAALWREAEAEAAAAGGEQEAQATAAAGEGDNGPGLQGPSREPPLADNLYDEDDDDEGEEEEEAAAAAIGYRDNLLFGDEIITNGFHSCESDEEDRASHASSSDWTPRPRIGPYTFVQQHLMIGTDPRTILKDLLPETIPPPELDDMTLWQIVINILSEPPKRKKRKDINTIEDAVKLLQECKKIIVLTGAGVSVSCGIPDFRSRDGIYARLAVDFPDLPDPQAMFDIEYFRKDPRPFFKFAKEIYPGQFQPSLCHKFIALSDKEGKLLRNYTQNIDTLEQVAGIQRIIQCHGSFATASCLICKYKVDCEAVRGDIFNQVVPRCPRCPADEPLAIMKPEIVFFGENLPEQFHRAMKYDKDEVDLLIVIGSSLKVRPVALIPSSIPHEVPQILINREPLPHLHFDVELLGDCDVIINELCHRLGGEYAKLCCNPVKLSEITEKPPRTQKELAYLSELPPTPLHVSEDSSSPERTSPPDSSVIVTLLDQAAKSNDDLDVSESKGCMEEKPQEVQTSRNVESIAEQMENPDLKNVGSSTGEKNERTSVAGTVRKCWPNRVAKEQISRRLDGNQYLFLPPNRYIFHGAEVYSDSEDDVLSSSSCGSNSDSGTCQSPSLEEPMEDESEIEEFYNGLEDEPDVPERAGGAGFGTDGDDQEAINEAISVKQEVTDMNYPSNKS
Assay: Mass spectrometry based SIRT1 deacetylase activation assay (acetylated p53-derived peptide substrate)
Format: biochemical
Conditions: 0.5 μM peptide substrate, 120 μM βNAD+, 10 nM SIRT1, 25 minutes at 25° C.

EC1.5	Fold Act. (percent maximum fold activation)	SMILES
A (EC1.5<1.0 uM)	A (Fold activation >200%)	O=C(Nc1ccc(CN2CCCC2)cc1)c1cccc2[nH]c(-c3ccc(CN4CCCC4)cc3C(F)(F)F)nc12 [Compound 869, 2-(4-(pyrrolidin-1-ylmethyl)-2-(trifluoromethyl)phenyl)-N-(4-(pyrrolidin-1-ylmethyl)phenyl)-1H-benzo[d]imidazole-4-carboxamide]
A (EC1.5<1.0 uM)	A (Fold activation >200%)	O=C(Nc1ccc(CN2CCCC2)cc1)c1cccc2[nH]c(-c3cc(CN4CCCC4)ccc3C(F)(F)F)nc12 [Compound 873, 2-(5-(pyrrolidin-1-ylmethyl)-2-(trifluoromethyl)phenyl)-N-(4-(pyrrolidin-1-ylmethyl)phenyl)-1H-benzo[d]imidazole-4-carboxamide]

More lines, now with the values behind:

SMILES	EC1.5	Fold Act. (percent maximum fold activation)
O=C(Nc1cccc(CN2CCOCC2)n1)c1cccc2[nH]c(-c3cc(F)ccc3F)nc12 [Compound 855]	A (EC1.5<1.0 uM)	A (Fold activation >200%)
O=C(Nc1cccc(N2CCOCC2)n1)c1cccc2[nH]c(-c3ccc(Cl)cc3C(F)(F)F)nc12 [Compound 868, 2-(4-chloro-2-(trifluoromethyl)phenyl)-N-(6-morpholinopyridin-2-yl)-1H-benzo[d]imidazole-4-carboxamide]	A (EC1.5<1.0 uM)	A (Fold activation >200%)
Cc1ccc(NC(=O)c2cccc3[nH]c(-c4ccc(CN5CCCC5)cc4C(F)(F)F)nc23)cc1 [Compound 870, 2-(4-(pyrrolidin-1-ylmethyl)-2-(trifluoromethyl)phenyl)-N-p-tolyl-1H-benzo[d]imidazole-4-carboxamide]	A (EC1.5<1.0 uM)	A (Fold activation >200%)
O=C(Nc1nccs1)c1cccc2[nH]c(-c3cc(CN4CCCC4)ccc3C(F)(F)F)nc12 [Compound 871, 2-(5-(pyrrolidin-1-ylmethyl)-2-(trifluoromethyl)phenyl)-N-(thiazol-2-yl)-1H-benzo[d]imidazole-4-carboxamide]	B (EC1.5 1-25 uM)	A (Fold activation >200%)
O=C(Nc1ccccn1)c1cccc2[nH]c(-c3cc(CN4CCCC4)ccc3C(F)(F)F)nc12 [Compound 872, N-(pyridin-2-yl)-2-(5-(pyrrolidin-1-ylmethyl)-2-(trifluoromethyl)phenyl)-1H-benzo[d]imidazole-4-carboxamide]	A (EC1.5<1.0 uM)	A (Fold activation >200%)
